These results are taken from US20080114066A1, “Synergistic Effects Of Docosahexaenoic Acid (DHA) And Carotenoid Absorption Of Cognitive Function” (Trustees of Tufts College, priority 2005, published 2008).

Data set [1] concerns macular pigment. Put plainly: Macular pigment optical density (MPOD), psychophysical method. Format: in vivo, human. The conditions noted are these: for Mean increase in total MPOD (change from baseline): 4 months of supplementation, area under the curve of 5 loci, mean ± se. On the procedure: (§1) Women were randomly assigned to one of four groups: Control (n=10), DHA (n=14, DHA 800 mg/d), lutein (n=12, lutein 12 mg/d), and lutein+DHA (n=14, lutein 12 mg/d; DHA 800 mg/d) (C, D, L, and LD, respectively). The supplement type was randomized. Subjects visited the Jean Mayer USDA Human Nutrition Research Center on Aging at Tufts University on days that supplements were distributed and blood obtained (0 mo-baseline, 2 mo, and 4 mo). Subjects were instructed to take the supplement with a nutritional energy drink (8 oz., Boost®, Mead Johnson Nutritionals) but were otherwise asked to not alter their diets. The diet of each subject was monitored with food frequency questionnaires (Block G, et al., A data-based approach to diet questionnaire design and testing. Am J Epidemiol, 1986. 24: p. 453-469) completed at baseline, 2 months and 4 months to be sure that there were no confounding changes in dietary intake. All subjects completed at least two sets of cognitive and mood self-report tests, at the beginning of the study, then at the end of the study, after four months of supplementation, at the Schepens Eye Research Institute. Compliance was by monitored by interview, compliance calendars and capsule count. Both the subjects and the experimenter were masked to the experimental groups. Blood samples were collected at baseline, 2 months and 4 months, and serum was separated from red blood cells (800×g, 10 minutes). Aliquots of serum are stored at −70° C. until analyzed. At baseline and 2 months, a two month supply of placebo supplements, DHA (800 mg/d, DHASCO, Martek Biological Sciences), lutein (12 mg/d plus 0.5 mg zeaxanthin, Kemin Foods), or lutein+DHA (12 mg/d and 800 mg/d, respectively and nutritional energy drink was provided. At baseline and 4 months, subjects visited the Schepens Eye Research Institute (Boston, Mass.) for testing of MP optical density (MPOD) and an ophthalmic exam. There were two visits at each time point.
The method of assessing MPOD involves a three-channel Maxwellian view optical system and used a psycho physical method described by Hammond et al. (Hammond B. R., et al., Vision Res, 1996. 36: p. 2001-2012). […] MPOD was measured in two baseline sessions on separate days and in two sessions on separate days at the end of 4 months of supplementation.
Differences between cognitive and mood scores at baseline and after supplementation were tested by Student's t test for each treatment group. In the case of those variables where a significant change was found from baseline to end of study, correlations were calculated between age, education, serum levels of DHA and lutein, and test scores, for those test scores where the distribution was normal or near-normal. […]

The test system of data set [2] is non-smoking women (60-80 years). Description: Verbal Fluency Test. Format: in vivo, human. Conditions: group mean.
Text: (§2) Subjects: Fifty non-smoking women (60-80 years) were recruited from the general population for a 4 month supplementation study. All subjects underwent a screening examination that includes a medical history, a physical examination, and a routine blood clinical chemistry profile. Volunteers with any history or biochemical evidence of lactose intolerance, liver, kidney, or pancreatic disease, anemia, active bowel disease or resection, insulin-dependent diabetes, easy bruising or bleeding, bleeding disorders, hyperglyceridemia, hyperlipidproteinemia, or alcoholism were excluded from the study. Moreover, individuals taking mineral oil or medications suspected of interfering with fat-soluble vitamin absorption were excluded. Subjects using steroids or non-steroid anti-inflammatory drugs, or antihistamine drugs were excluded. […] Subjects were excluded if they have taken any nutrient supplement for 2 months or more before admission into the study or carotene supplements 6 months or more before the study. Smoking was not permitted during the course of the study.
as §1, with “At baseline and 2 months, a two month supply of placebo supplements, DHA (800 mg/d, DHASCO, Martek Biological Sciences), lutein (12 mg/d plus 0.5 mg zeaxanthin, Kemin Foods), or lutein+DHA (12 mg/d and 800 mg/d, respectively and nutritional energy drink was provided. At baseline and 4 months, subjects visited the Schepens Eye Research Institute (Boston, Mass.) for testing of MP optical density (MPOD) and an ophthalmic exam. There were two visits at each time point.” left out

Data set [3] has the same test system. Description: Digit Span Forward and Backward. Format: in vivo, human. Conditions: group mean.
Text: as §2, §1
Supplementation Protocol. Dietary supplements in capsule form were Lutein (12 mg/day) (Kemin Foods) and Docosahexaenoic Acid (DHASCO) (800 mg/day) (Martek Biological Sciences). Participants in each of the four supplementation groups were instructed to drink one can of a nutritional supplement daily (Boost Plus) (Mead Johnson) when taking their capsules. Subjects ingested their dietary supplements daily for a period of 4 months. Both the subjects and the experimenter were masked to the experimental groups.
Tests and Measurements. The battery of cognitive tests included tests of memory and processing speed or attention and a measure of self-reported mood. […] Early cognitive markers of the incidence of dementia and mortality: A longitudinal population-based study of the oldest old. International Journal of Geriatric Psychiatry, 12, 53-59; Payton, M., Riggs, K. M., Spiro III, A., Weiss, S. T. & Hu, H. (1998). […]

A short description of data set [4]: Serum carotenoids (lutein, zeaxanthin) by HPLC. The data set is classed as in vivo, human. The conditions noted are these: after 2 and 4 months of supplementation. On the procedure:
(§3) Women were randomly assigned to one of four groups: Control (n=10), DHA (n=14, DHA 800 mg/d), lutein (n=12, lutein 12 mg/d), and lutein+DHA (n=14, lutein 12 mg/d; DHA 800 mg/d) (C, D, L, and LD, respectively). The supplement type was randomized. Subjects visited the Jean Mayer USDA Human Nutrition Research Center on Aging at Tufts University on days that supplements were distributed and blood obtained (0 mo-baseline, 2 mo, and 4 mo). Subjects were instructed to take the supplement with a nutritional energy drink (8 oz., Boost®, Mead Johnson Nutritionals) but were otherwise asked to not alter their diets. The diet of each subject was monitored with food frequency questionnaires (Block G, et al., A data-based approach to diet questionnaire design and testing. Am J Epidemiol, 1986. 24: p. 453-469) completed at baseline, 2 months and 4 months to be sure that there were no confounding changes in dietary intake. […] Compliance was by monitored by interview, compliance calendars and capsule count. […] Aliquots of serum are stored at −70° C. until analyzed. […]
(§4) Serum carotenoids were extracted and analyzed by HPLC using the method described by Yeum et al. (Yeum, K. J., et al., Am J Clin Nutr, 1996. 64(4): p. 594-602.). […]
(§5) Results are expressed as mean ±SE. […]

For data set [5] the following is noted: background statement; cited from earlier work.
The nature of data set [6]: Serum DHA by gas-liquid chromatography. Format: in vivo, human. Conditions: after 2 and 4 months of supplementation. On the procedure:
as §3, §4, §5

Setting [7] is: Baseline, before supplementation.
The mark [8] stands for this setting: Final, after 4 months of supplementation (DHA 800 mg/d and/or lutein 12 mg/d).
Where [9] appears, read: Final, after 4 months of supplementation.

Structures are written as SMILES.

Turning to `CC/C=C\C/C=C\C/C=C\C/C=C\C/C=C\C/C=C\CCC(=O)O` [DHA, cis-4,7,10,13,16,19-docosahexaenoic acid], the “Retinal loci with significant increase in MPOD” value in data set [1] (4 month change from baseline, loci 0.4°, 1.5°, 3°, 5°) came out at 0.4°. Besides, the “Mean increase in total MPOD (change from baseline)” value in data set [1] amounted to 0.037±0.068 OD. Also, the “Verbal Fluency” value in data set [2] (setting [7]) is 15.0. Besides, the “Verbal Fluency” value in data set [2] (setting [8]) is on record as 17.8. For the same compound, in data set [3] (setting [7]), the “Backward Digit Span Length” value was 5.4, the “Backward Digit Span Total” value is 7.9, the “Forward Digit Span Length” value is listed as 6.6 and the “Forward Digit Span Total” value worked out at 8.4. Besides, in data set [3] (setting [9]), the “Backward Digit Span Length” value came to 5.8, the “Backward Digit Span Total” value is given as 8.4, the “Forward Digit Span Length” value is listed as 6.7 and the “Forward Digit Span Total” value stood at 8.5.
In the case of `CC1=C[C@H](O)CC(C)(C)[C@H]1/C=C/C(C)=C/C=C/C(C)=C/C=C/C=C(C)/C=C/C=C(C)/C=C/C1=C(C)C[C@@H](O)CC1(C)C` [Lutein, lutein], the “Serum concentration of lutein, change from baseline” value in data set [4] was “significantly increased”. In data set [1] (4 months of lutein supplementation), the “Subjects without increase in MPOD (non responders)” value was “Two of 14”. Moreover, the “Mean increase in total MPOD (change from baseline)” value in data set [1] amounted to 0.370±0.140 OD. For the same compound, in data set [5], the “Share transported in blood on HDL” value is “about 53%”, the “Share transported in blood on LDL” value is on record as “about 31%” and the “Share transported in blood on VLDL” value is reported as “about 16%”. The “Verbal Fluency” value in data set [2] (setting [7]) came out at 11.3. For the same compound, in data set [2] (setting [8]), the “Verbal Fluency” value is recorded as 15.5. In addition, in data set [3] (setting [7]), the “Backward Digit Span Length” value is listed as 5.1, the “Backward Digit Span Total” value is 7.5, the “Forward Digit Span Length” value stood at 6.6 and the “Forward Digit Span Total” value was found to be 8.1. Also, in data set [3] (setting [9]), the “Backward Digit Span Length” value is 4.7, the “Backward Digit Span Total” value was 6.9, the “Forward Digit Span Length” value was found to be 7.0 and the “Forward Digit Span Total” value was found to be 8.7. The “Serum concentration of DHA, change from baseline” value in data set [6] is listed as “No significant changes”.
